Article PMC9312091, “Mining Amphibian and Insect Transcriptomes for Antimicrobial Peptide Sequences with rAMPage” (Antibiotics, 2022)
Peptide text beside a SMILES is read from it.

Test system: E. coli and/or S. aureus
Assay: Antimicrobial susceptibility testing (MIC and MBC), summary statements
Format: cell-based
Settings: AST in vitro against E. coli ATCC 25922 and S. aureus ATCC 29213
Protocol: A total of 21 of the 1137 putative AMPs (Table S2) were synthesized (Genscript Biotech, Piscataway, NJ, USA) and tested for their antimicrobial activity against Escherichia coli ATCC 25922 and Staphylococcus aureus ATCC 29213 in a minimum of three independent experiments (see Figure S5 for a full set of experimental results). In these antimicrobial susceptibility tests, AMP activity was assessed using two metrics: minimum inhibitory and bactericidal concentrations (MIC and MBC, respectively). Lower MIC and MBC values are desirable as they indicate that lower AMP concentrations are sufficient for inhibitory or bactericidal activity, respectively. AMP toxicity was measured by HC50 hemolytic concentration values—the concentration required to lyse ≥ 50% of porcine red blood cells. […]
Twenty-one putative AMP sequences identified using the rAMPage pipeline were validated through a minimum of three AST experiments performed independently on separate days. In these tests, the AMP activity was assessed using two metrics: minimum inhibitory concentration and minimum bactericidal concentration (MIC and MBC, respectively). MIC and MBC values were determined using procedures outlined by the Clinical and Laboratory Standards Institute (CLSI), with the recommended adaptations for the testing of cationic AMPs described previously. […]

CC(C)C[C@H](NC(=O)[C@H](CCCCN)NC(=O)[C@H](CCC(=O)O)NC(=O)[C@H](CC(C)C)NC(=O)[C@H](CCCNC(=N)N)NC(=O)[C@@H](NC(=O)[C@H](Cc1ccc(O)cc1)NC(=O)[C@H](CC(N)=O)NC(=O)[C@H](CCCCN)NC(=O)[C@H](CCCCN)NC(=O)[C@H](CC(N)=O)NC(=O)[C@@H](NC(=O)[C@H](CC(C)C)NC(=O)[C@H](CCCCN)NC(=O)[C@H](CCCCN)NC(=O)[C@@H](NC(=O)[C@H](CO)NC(=O)[C@H](CCCCN)NC(=O)[C@H](CO)NC(=O)[C@H](CC(C)C)NC(=O)[C@H](Cc1c[nH]c2ccccc12)NC(=O)[C@@H](N)CO)C(C)C)C(C)C)[C@@H](C)O)C(=O)N[C@@H](C)C(=O)N[C@@H](CCCCN)C(=O)N[C@@H](CCCCN)C(=O)N[C@@H](CCCCN)C(=O)N[C@@H](CC(C)C)C(=O)N[C@@H](Cc1ccccc1)C(=O)N[C@@H](CC(N)=O)C(=O)N[C@@H](CCC(=O)O)C(=O)O [TeRu4] (H-SWLSKSVKKLVNKKNYTRLEKLAKKKLFNE-OH; N-terminus and C-terminus assumed)
antimicrobial activity (in words): active only against E. coli
